Assay results published in BigSolDB 2.1.

C1=Cc2cccc3cccc1c23
Details | solubility (mole fraction)
in ethanol, 278.1 K | 0.00462
in ethanol, 283.53 K | 0.00579
in ethanol, 288.25 K | 0.00709
in ethanol, 293.25 K | 0.00891
in ethanol, 298.2 K | 0.0108
in ethanol, 303.2 K | 0.0133
in ethanol, 308.2 K | 0.0165
in ethanol, 313.05 K | 0.0197
in ethanol, 318.25 K | 0.0245
in ethanol, 323.15 K | 0.0296
in isopropanol, 278.3 K | 0.00469
in isopropanol, 283.07 K | 0.00592
in isopropanol, 288.33 K | 0.0077
in isopropanol, 293.2 K | 0.00967
in isopropanol, 298.07 K | 0.012
in isopropanol, 303.3 K | 0.0152
in isopropanol, 308.05 K | 0.0189
in isopropanol, 312.95 K | 0.0236
in isopropanol, 318.4 K | 0.0302
in isopropanol, 323.25 K | 0.0372
in n-butanol, 278.25 K | 0.0101
in n-butanol, 283.05 K | 0.0122
in n-butanol, 288.05 K | 0.0154
in n-butanol, 293.25 K | 0.019
in n-butanol, 298.25 K | 0.0237
in n-butanol, 303.15 K | 0.029
in n-butanol, 308.1 K | 0.0349
in n-butanol, 313.2 K | 0.0427
in n-butanol, 318.05 K | 0.0525
in n-butanol, 323.05 K | 0.0639
in toluene, 278.47 K | 0.104
in toluene, 283.33 K | 0.122
in toluene, 288.1 K | 0.142
in toluene, 293.15 K | 0.167
in toluene, 298.23 K | 0.194
in toluene, 303.15 K | 0.224
in toluene, 307.95 K | 0.256
in toluene, 312.95 K | 0.299
in toluene, 318.3 K | 0.346
in toluene, 323.2 K | 0.398
